According to US20200289144A1, “DEVICE, METHOD AND FORMULATION FOR CHEMICALLY ASSISTED DISSECTION” (priority 2016, published 2020):

Assays:
human MRC-5 fibroblasts [1] = experiment: Quantitative evaluation of cytotoxicity, viability assay using MU reagent; assay type: cell-based; settings: for cytotoxicity (percentage of viability below 70% compared to culture medium): result in words
Protocol: Two experiments were performed. […] All samples were assayed in triplicate.
The cytotoxicity is defined by a viability of a test substance below 70% in compartion to culture medium.

human MRC-5 fibroblasts [2] = experiment: Qualitative evaluation of cytotoxicity by microscopic examination; settings: mean ± SD of scores
Protocol: In vitro cytotoxicity of Mesna in human MRC-5 fibroblasts was evaluated. Two experiments were performed. The first one was performed with two doses of Mesna (5% and 10%) and NaCl (7.06 and 3.53%) and the second one was performed with three doses of Mesna (5, 10 and 20%) and the three corresponding doses of NaCl (7.06, 3.53 and 1.76%). All samples were assayed in triplicate. Evaluation of cytotoxicity was evaluated after the following times: T15 min, T30 min, T1h, T2h, T4h, T8h and T24h.
Cells were thawed according to the standard operating procedure No. TEC-005 and subcultured according to the standard operating procedure No. TEC-001. The cell line was cultured in 75 cm^2-flasks in appropriated culture medium.
A score was assigned based on observations.

[3] = Mesna purity before and after sterilization using X-rays and gamma irradiation; assay type: physicochemical
Description: Mesna purity has been evaluated prior and after sterilization using X-rays and gamma irradiation.

Mesna purity ([3]; After X-ray irradiation) | Mesna purity ([3]; After gamma irradiation) | Mesna purity ([3]; Prior irradiation) | SMILES | percentage of cell viability compared to culture medium (100% of viability) (human MRC-5 fibroblasts [1]; 15 min (0.25 h) exposure) | percentage of cell viability compared to culture medium (100% of viability) (human MRC-5 fibroblasts [1]; 30 min (0.5 h) exposure) | percentage of cell viability compared to culture medium (100% of viability) (human MRC-5 fibroblasts [1]; 1 h exposure) | percentage of cell viability compared to culture medium (100% of viability) (human MRC-5 fibroblasts [1]; 2 h exposure) | percentage of cell viability compared to culture medium (100% of viability) (human MRC-5 fibroblasts [1]; 4 h exposure) | percentage of cell viability compared to culture medium (100% of viability) (human MRC-5 fibroblasts [1]; 8 h exposure) | percentage of cell viability compared to culture medium (100% of viability) (human MRC-5 fibroblasts [1]; 24 h exposure) | cytotoxicity score (microscopic examination) (human MRC-5 fibroblasts [2]; 15 min exposure) | cytotoxicity score (microscopic examination) (human MRC-5 fibroblasts [2]; 30 min exposure) | cytotoxicity score (microscopic examination) (human MRC-5 fibroblasts [2]; 1 h exposure) | cytotoxicity score (microscopic examination) (human MRC-5 fibroblasts [2]; 2 h exposure) | cytotoxicity score (microscopic examination) (human MRC-5 fibroblasts [2]; 4 h exposure) | cytotoxicity score (microscopic examination) (human MRC-5 fibroblasts [2]; 8 h exposure) | cytotoxicity score (microscopic examination) (human MRC-5 fibroblasts [2]; 24 h exposure) | cytotoxicity (percentage of viability below 70% compared to culture medium) (human MRC-5 fibroblasts [1])
 |  |  | O=S(=O)([O-])CCS.[Na+] [Mesna 5%, Sodium 2-mercaptoethanesulfonate] | 66% | 47.6% | 50.4% | 39.7% | 12% | 3.4% | 1.4% | 0.0 ± 0.0 | 1.5 ± 0.7 | 1.5 ± 0.7 | 3.0 ± 0.0 | 3.0 ± 0.0 | 3.0 ± 0.0 | 4 ± 0 | 
 |  |  | O=S(=O)([O-])CCS.[Na+] [Mesna 10%, Sodium 2-mercaptoethanesulfonate] | 62.3% | 54.8% | 20.6% | 4.1% | 3.2% | 3.3% | 1.1% | 0.0 ± 0.0 | 0.0 ± 0.0 | 1.0 ± 0.0 | 3.0 ± 0.0 | 3.0 ± 0.0 | 3.0 ± 0.0 | 4 ± 0 | 
 |  |  | O=S(=O)([O-])CCS.[Na+] [Mesna 20%, Sodium 2-mercaptoethanesulfonate] | −10.2% | −1.2% | 47.2% | 11.8% | 4.6% | 12.1% | 18.3% | 0.0 | 1.0 | 2.0 | 3.0 | 3.0 | 3.0 | 4.0 | 
89.0 | 88.9 | 89.6 | O=S(=O)([O-])CCS.[Na+] [Mesna powder, Sodium 2-mercaptoethanesulfonate] |  |  |  |  |  |  |  |  |  |  |  |  |  |  | 
 |  |  | [Cl-].[Na+] [NaCl 1.76%, NaCl] | 88.8% | 102.6% | 95% | 75.5% | 44% | 23.1% | 8% | 0.0 | 0.0 | 1.0 | 2.0 | 3.0 | 3.0 | 4.0 | not cytotoxic after 2 hours
 |  |  | [Cl-].[Na+] [NaCl 3.53%, NaCl] | 82.7% | 55.4% | 16.3% | 12.7% | 10.5% | 14.4% | 7.2% | 0.0 ± 0.0 | 0.0 ± 0.0 | 2 ± 1.4 | 3.0 ± 0.0 | 3.0 ± 0.0 | 3.0 ± 0.0 | 4 ± 0 | 
 |  |  | [Cl-].[Na+] [NaCl 7.06%, NaCl] | 45.2% | 25.3% | 12.7% | 12.3% | 10.8% | 14.6% | 7.3% | 0.0 ± 0.0 | 0.5 ± 0.7 | 2.5 ± 0.7 | 3.0 ± 0.0 | 3.0 ± 0.0 | 3.0 ± 0.0 | 4 ± 0 | 
 |  |  | Oc1ccccc1 [Phenol 0.5%, Phenol] | 10.9% | 13.2% | 11.3% | 13.6% | 10.4% | 14.2% | 8.5% | 3.0 ± 0.0 | 3.0 ± 0.0 | 3.0 ± 0.0 | 3.0 ± 0.0 | 3.0 ± 0.0 | 3.0 ± 0.0 | 4.0 ± 0.0 | observed at all time points
89.3 | 89.1 | 89.4 | O=S(=O)([O-])CCS.[Na+] [Pure lyophilized Mesna, Sodium 2-mercaptoethanesulfonate] |  |  |  |  |  |  |  |  |  |  |  |  |  |  | 
